Results from ChEMBL document CHEMBL1268923, “Identification of 9-fluoro substituted (-)-cytisine derivatives as ligands with high affinity for nicotinic receptors” (Bioorg Med Chem Lett, 2010).

How the values were obtained:
[1] = target: Neuronal acetylcholine receptor; alpha4/beta2 (Rattus norvegicus, UniProt P09483+P12390); experiment: Displacement of [3H]cytisine from rat alpha4beta2 nAChR in rat brain cell membrane; type: cell membranes
[2] = target: Neuronal acetylcholine receptor subunit alpha-7 (Rattus norvegicus, UniProt Q05941); experiment: Displacement of [125I]alpha-Bungarotoxin from alpha7 nAchR in rat brain cell membrane; type: cell membranes
Neuronal acetylcholine receptor subunit alpha-7, sequence (Q05941 whole entry): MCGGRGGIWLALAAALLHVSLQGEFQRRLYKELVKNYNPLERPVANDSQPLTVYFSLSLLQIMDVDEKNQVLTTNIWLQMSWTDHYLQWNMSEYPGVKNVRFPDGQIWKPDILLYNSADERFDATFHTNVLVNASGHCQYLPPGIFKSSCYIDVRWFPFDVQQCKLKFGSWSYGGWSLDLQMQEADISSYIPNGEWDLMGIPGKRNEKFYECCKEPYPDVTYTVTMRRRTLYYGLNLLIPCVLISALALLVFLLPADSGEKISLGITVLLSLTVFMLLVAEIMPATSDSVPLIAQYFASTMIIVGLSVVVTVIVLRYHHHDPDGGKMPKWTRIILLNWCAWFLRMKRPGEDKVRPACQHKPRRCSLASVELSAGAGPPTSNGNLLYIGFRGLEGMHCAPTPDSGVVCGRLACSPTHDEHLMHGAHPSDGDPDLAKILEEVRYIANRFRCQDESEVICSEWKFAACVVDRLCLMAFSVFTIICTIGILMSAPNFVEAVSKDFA

Neuronal acetylcholine receptor; alpha4/beta2, sequence (P09483 whole entry): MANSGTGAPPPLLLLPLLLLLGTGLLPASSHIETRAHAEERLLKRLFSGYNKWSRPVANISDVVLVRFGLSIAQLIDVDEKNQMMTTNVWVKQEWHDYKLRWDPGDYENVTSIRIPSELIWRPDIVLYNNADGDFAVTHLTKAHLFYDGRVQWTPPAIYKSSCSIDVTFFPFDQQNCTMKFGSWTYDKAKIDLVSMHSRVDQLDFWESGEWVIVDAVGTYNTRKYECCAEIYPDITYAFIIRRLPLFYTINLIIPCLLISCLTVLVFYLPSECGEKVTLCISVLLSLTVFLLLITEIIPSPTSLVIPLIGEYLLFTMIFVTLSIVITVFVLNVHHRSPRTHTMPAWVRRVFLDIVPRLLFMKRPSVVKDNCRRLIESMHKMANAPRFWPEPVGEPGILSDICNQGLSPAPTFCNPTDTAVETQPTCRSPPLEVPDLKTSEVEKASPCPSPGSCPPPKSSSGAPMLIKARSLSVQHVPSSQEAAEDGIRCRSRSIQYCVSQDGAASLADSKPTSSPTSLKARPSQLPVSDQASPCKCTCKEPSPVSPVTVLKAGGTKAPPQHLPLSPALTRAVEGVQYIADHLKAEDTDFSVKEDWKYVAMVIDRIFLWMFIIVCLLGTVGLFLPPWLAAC
Neuronal acetylcholine receptor; alpha4/beta2, sequence (P12390 whole entry): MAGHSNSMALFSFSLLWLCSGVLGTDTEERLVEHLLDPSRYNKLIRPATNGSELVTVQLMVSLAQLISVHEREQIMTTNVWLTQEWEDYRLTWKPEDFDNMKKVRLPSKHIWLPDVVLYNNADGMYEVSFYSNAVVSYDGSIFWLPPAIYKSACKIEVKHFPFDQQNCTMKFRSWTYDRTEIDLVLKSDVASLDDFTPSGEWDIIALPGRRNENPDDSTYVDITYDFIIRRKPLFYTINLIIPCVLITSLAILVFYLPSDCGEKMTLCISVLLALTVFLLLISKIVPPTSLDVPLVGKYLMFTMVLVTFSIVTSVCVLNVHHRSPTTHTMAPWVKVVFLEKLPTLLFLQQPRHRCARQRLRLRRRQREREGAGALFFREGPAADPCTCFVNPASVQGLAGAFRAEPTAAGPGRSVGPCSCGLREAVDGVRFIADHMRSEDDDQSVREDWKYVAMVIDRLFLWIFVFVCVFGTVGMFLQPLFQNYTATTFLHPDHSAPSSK

Row | Structure (SMILES) | Ki [1] | Ki [2]
1 | O=c1c(C(F)(F)F)ccc2n1C[C@@H]1CNC[C@H]2C1 | 0.22 nM | 1000 nM
2 | O=c1cccc2n1C[C@@H]1C[C@@H]2CN(I)C1 | 0.165 nM | 2000 nM
3 | O=c1cccc2n1C[C@@H]1CNC[C@H]2C1 [CYTISINICLINE] | 1.06 nM | 1000 nM
4 | O=c1cccc2n1C[C@@H]1C[C@@H]2CN(Br)C1 | 0.208 nM | 112 nM
5 | O=c1c(F)ccc2n1C[C@@H]1CNC[C@H]2C1 | 6.53 nM | –
6 | Cc1ccc2n(c1=O)C[C@@H]1CNC[C@H]2C1 | 0.24 nM | 2000 nM
7 | O=c1c(Br)ccc2n1C[C@@H]1CNC[C@H]2C1 | 0.116 nM | 401 nM
